Experimental data reported in patent US5736352A, “Method and apparatus for determination of the activity of cholesterol oxidase and method and apparatus for evaluation of the toxicity of chemical substances” (priority 1995, dated 1998).
Like-named read-outs stand apart in the source and are kept apart here.

Tested on: cholesterol oxidase
Assay type: biochemical
Settings: for effect of the chemical substance on the activity of the cholesterol oxidase (toxicity), curve compared with curve 22: 1 mU/ml cholesterol oxidase, pH 7.45
[1] = 10 micro-M substance, film 70 mol % L-α-dimyristylphosphatizircoline / 30 mol % cholesterol

Experimental: Any chemical substrance to be evaluated on the toxicity is previously dissolved or dispersed in the cholesterol oxidase solution 12. A monomolecule film is formed on a surface of the cholesterol oxidase solution 12 by use of a monomolecule film development solution including any phospholipid and any sterol. The surface pressure of the monomolecule film is measured to find a rate in the increase of the surface pressure of the monomolecule film. […] The reduction in the activity of the cholesterol oxidase results in a reduction in the increasing rate of the surface pressure of the monomolecule film. […] This means that the toxicitic chemical substance would be present in the cholesterol oxidase solution.
As a cholesterol oxidase solution 12, there was used a buffer solution including N-2-hydroxyethylpiperzane-N'-2-ethane sulfuric acid, where the ion strength is 0.1 and pH value is 7.45 as well as 1 mU/ml of the cholesterol oxidase is dissolved in the buffer solution. […] As a monomolecule film development solution 13, there was used a monomolecule film development solution comprising 70 mol % of L-α-dimyristylphosphatizircoline and 30 mol % of cholesterol.
The increasing rate of the surface pressure of the monomolecule film depends upon file cholesterol oxidase activity. As described above, the activity of the cholesterol oxidase depends upon the rate of increase in the surface pressure of the monomolecule film.

SMILES	effect of the chemical substance on the activity of the cholesterol oxidase (toxicity), curve compared with curve 22 [1]	further results
[Ca+2].[Cl-].[Cl-] [calcium chloride]	no toxicity	
CC(=O)[O-].CC(=O)[O-].[Pb+2] [lead acetate]	reduces the activity of the cholesterol oxidase	Linear Differential Coefficient (rate of increase in the surface pressure of the monomolecule film) (Cholesterol Oxidase 1 mU/ml, Lead Acetate 10 μ Mol, film 70 mol % L-α-dimyristylphosphatizircoline / 30 mol % cholesterol, five minutes after film was prepared, curve 23 (curve 22 without substance: 5.5 × 10^-2)): 4.2 × 10^-2 mN/mmin.
[Cl][Hg][Cl] [mercury chloride]		effect of the chemical substance on the activity of the cholesterol oxidase (toxicity), curve compared with curve 22 (10 micro-M substance, film 70 mol % L-α-dipalmytylphosphatizircoline / 30 mol % dihydrocholesterol): reduces the activity of the cholesterol oxidase
CCCCCCCCCCCCOS(=O)(=O)[O-].[Na+] [sodium dodecylsulfate]		effect of the chemical substance on the activity of the cholesterol oxidase (toxicity), curve compared with curve 22 (1 micro-M substance, film 70 mol % L-α-di-palmytylphosphatizir-ethanol / 30 mol % pregnenolone): reduces the activity of the cholesterol oxidase
[Cl-].[Cl-].[Zn+2] [zinc chloride]	reduces the activity of the cholesterol oxidase	
